From paper PMC4661537 (2015)

Tests used:
[1] = test system: Spi-tRNA (RNA, aptamer) GCCCGGAUAGCUCAGUCGGUAGAGCAGCGGCCGGACGCAACUGAAUGAAAUGGUGAAGGACGGGUCCAGGUGUGGCUGCUUCGGCAGUGCAGCUUGUUGAGUAGAGUGUGAGCUCCGUAACUAGUCGCGUCCGGCCGCGGGUCCAGGGUUCAAGUCCCUGUUCGGGCGCCA; assay: fluorescence activation; settings: K+ 125 mM, Mg2+ 5 mM (folding buffer); fluorescence slightly higher than single Spinach
[2] = test system: Spi (single Spinach aptamer, 24-2) (RNA, aptamer) GACGCAACUGAAUGAAAUGGUGAAGGACGGGUCCAGGUGUGGCUGCUUCGGCAGUGCAGCUUGUUGAGUAGAGUGUGAGCUCCGUAACUAGUCGCGUC; assay: fluorescence association kinetics (koff/kon); settings: K+ 125 mM, Mg2+ 5 mM (folding buffer); 40 mM K-HEPES pH 7.5; 40 nM aptamer, DFHBI 200-600 nM; mean over concentrations; biphasic; per site
[3] = test system: Spi-8R (RNA, aptamer) UAGACGGCAUGGGGAGACGCGACCGAAAUGGUGAAGGACGGGUCCAGUGCUUCGGCACUGUUGAGUAGAGUGUGAGCUCCGUAACUGGUCGCGUCACGUAAGAUGCUCCGGUUAGGGAGACGCGACCGAAAUGGUGAAGGACGGGUCCAGUGCUUCGGCACUGUUGAGUAGAGUGUGAGCUCCGUAACUGGUCGCGUCACUGAUGUACCGUUGAGCAGGGAGACGCGACCGAAAUGGUGAAGGACGGGUCCAGUGCUUCGGCACUGUUGAGUAGAGUGUGAGCUCCGUAACUGGUCGCGUCACUCGCUAGAGCAUGGUUUGGGAGACGCGACCGAAAUGGUGAAGGACGGGUCCAGUGCUUCGGCACUGUUGAGUAGAGUGUGAGCUCCGUAACUGGUCGCGUCACUGGGGCACGCCGUCUGGGGGAGACGCGACCGAAAUGGUGAAGGACGGGUCCAGUGCUUCGGCACUGUUGAGUAGAGUGUGAGCUCCGUAACUGGUCGCGUCACUUACUGCGACCGCAAUAGGGAGACGCGACCGAAAUGGUGAAGGACGGGUCCAGUGCUUCGGCACUGUUGAGUAGAGUGUGAGCUCCGUAACUGGUCGCGUCACGCGCGCAACCGGGUAGAGGGAGACGCGACCGAAAUGGUGAAGGACGGGUCCAGUGCUUCGGCACUGUUGAGUAGAGUGUGAGCUCCGUAACUGGUCGCGUCACGUAACUCACGGCGCUAUGGGAGACGCGACCGAAAUGGUGAAGGACGGGUCCAGUGCUUCGGCACUGUUGAGUAGAGUGUGAGCUCCGUAACUGGUCGCGUC; assay: fluorescence association kinetics (koff/kon); settings: K+ 125 mM, Mg2+ 5 mM (folding buffer); 40 mM K-HEPES pH 7.5; 10 nM RNA (34.8 nM folded aptamer), DFHBI 200-600 nM; per aptamer; biphasic; per site

CC1=N/C(=C\c2cc(F)c(O)c(F)c2)C(=O)N1C
binding [1]: yes | KD [2]: 0.303 ± 0.022 µM | KD [3]: 0.246 ± 0.067 µM
